Assay results from PMC12743403, “Green-synthesized silver nanoparticles from Camellia sinensis: mechanistic insights into phenolic-mediated multifunctional biological activities” (BMC Plant Biology, 2025).

Tested on: T1, urease
T1 construct: gene jack bean urease
Details: 100 mM urea, room temperature, 10 min; reference inhibitor

NC(N)=S [Thiourea]
Urease IC50: 24.5 ± 0.7 µg/mL
